Laboratory results: patent publication US9932331B2, “Phenyl tetrahydroisoquinoline compound substituted with heteroaryl” (TAISHO PHARMACEUTICAL CO., LTD, priority 2014, dated 2018)
Counter-ions that a name gives are not always drawn.

Biological target: T1, human NHE3 (Homo sapiens, UniProt P48764)
T1 sequence (P48764 26-834): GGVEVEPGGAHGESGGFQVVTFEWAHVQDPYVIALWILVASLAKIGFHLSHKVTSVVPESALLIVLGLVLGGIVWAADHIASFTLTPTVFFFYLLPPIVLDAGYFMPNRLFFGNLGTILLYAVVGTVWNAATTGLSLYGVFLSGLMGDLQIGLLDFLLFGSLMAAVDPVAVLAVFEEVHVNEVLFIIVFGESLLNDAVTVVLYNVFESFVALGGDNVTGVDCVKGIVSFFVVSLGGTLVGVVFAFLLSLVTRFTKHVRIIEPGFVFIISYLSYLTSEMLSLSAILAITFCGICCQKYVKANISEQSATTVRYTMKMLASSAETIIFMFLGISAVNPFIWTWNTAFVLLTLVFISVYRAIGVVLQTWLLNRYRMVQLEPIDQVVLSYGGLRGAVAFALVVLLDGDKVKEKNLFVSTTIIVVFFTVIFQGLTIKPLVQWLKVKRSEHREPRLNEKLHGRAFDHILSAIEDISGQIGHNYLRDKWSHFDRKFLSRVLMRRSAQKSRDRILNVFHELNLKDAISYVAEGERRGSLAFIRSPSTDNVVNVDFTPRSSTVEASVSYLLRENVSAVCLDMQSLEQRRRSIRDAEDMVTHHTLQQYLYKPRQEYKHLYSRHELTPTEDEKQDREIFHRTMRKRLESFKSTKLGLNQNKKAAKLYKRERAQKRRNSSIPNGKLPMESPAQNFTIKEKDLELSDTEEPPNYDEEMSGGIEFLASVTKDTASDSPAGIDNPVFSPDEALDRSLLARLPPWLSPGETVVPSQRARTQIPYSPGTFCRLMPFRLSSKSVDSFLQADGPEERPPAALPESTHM
Experiment: NHE3 inhibition test (recovery of intracellular pH in cell line stably expressing human NHE3)
Format: cell-based
Details: OK cells deficient in endogenous NHE stably expressing human NHE3; BCECF fluorescence, initial rate of pH recovery; read-out: human NHE3 inhibitory activity IC50
Method: (1) Preparation of Cell Line Deficient in Endogenous NHE
The cell line deficient in endogenous NHE was prepared according to the method of Jacques Pouyssegur et al. (Proc. Natl. Acad. Sci. USA. 1984, Vol. 81, 4833-4837) using opossum kidney (OK) cells (ATCC).
(2) Preparation of Expression Plasmid and Cell Line Stably Expressing Human NHE3
The expression plasmid was constructed by inserting a human NHE3 (SLC9A3, Accession No. NM_004174) cDNA sequence (GeneCopoeia, Inc.) into a pcDNA3.2/V5-DEST vector (Life Technologies Corp.).
The OK cells deficient in endogenous NHE were transfected with the constructed human NHE3 expression plasmid to prepare stably expressing cells. The transfection was carried out by electroporation using a Nucleofector 2b device (Lonza Group Ltd.). A stably expressing cell line was selected in medium supplemented with 500 μg/mL Geneticin (Life Technologies Corp.) and isolated.
NHE3 activity measurement method using cell: The activity was determined by using the NHE3-mediated recovery of intracellular pH occurring after intracellular acidification, as an index. The intracellular pH was measured by a partial modification of the pH-sensitive fluorescent indicator method reported by Tsien et al. (Proc. Natl. Acad. Sci. USA., 1984, 81, 7436-7440).
The cell line stably expressing human NHE3 was inoculated on a poly-D-lysine-coated 96-well plate (Greiner Bio-one) and cultured overnight. […] Then, Hank's balanced salt buffer solution containing 0.25 μM BCECF-AM (Dojindo Laboratories) was added to the cells, which were then incubated at 37° C. for 30 minutes. […] The cells thus incubated in the NH4Cl buffer solution were washed with NH4Cl-free buffer solution (133.8 mM choline chloride, […], 5 mM glucose, 4.7 mM KCl, 1.25 mM CaCl2, 1.25 mM MgCl2, 0.97 mM K2HPO4, 0.23 mM KH2PO4, pH 7.4) to decrease the intracellular pH. After the washing step, 70 μL of a test compound solution prepared with the NH4Cl-free buffer solution was added to the cells, and 70 iμL of sodium ion-containing buffer solution (133.8 mM NaCl, 10 mM HEPES, 5 mM glucose, 4.7 mM KCl, 1.25 mM CaCl2, 1.25 mM MgCl2, 0.97 mM Na2HPO4, 0.23 mM NaH2PO4, pH 7.4) was added thereto in a measurement system FDSS6000 (Hamamatsu Photonics K.K.) to start the recovery of pH. The recovery of intracellular pH was monitored using BCECF fluorescence (excitation wavelength: 480 nm, fluorescence wavelength: 520 to 560 nm), and the initial rate of the pH recovery was plotted. The recovery of pH without test compound was defined as the maximum recovery, and the test compound concentration necessary to inhibit 50% of the maximum recovery was calculated as an IC50 value.

Structure (SMILES)	IC50 [nM]
CN1Cc2c(Cl)cc(Cl)cc2[C@H](c2cccc(-c3cn(CCOCCOCCOCCNC(=O)NCCCCCCCCNC(=O)NCCOCCOCCOCCn4cc(-c5cccc([C@@H]6CN(C)Cc7c(Cl)cc(Cl)cc76)c5)nn4)nn3)c2)C1 [Example 7-28, 1,1′-Octane-1,8-diylbis {3-[2-(2-{2-[2-(4-{3-[(4S)-6,8-dichloro-2-methyl-1,2,3,4-tetrahydroisoquinolin-4-yl]phenyl}-1H-1,2,3-triazol-1-yl)ethoxy]ethoxy}ethoxy)ethyl]urea}hydrochloride]	7.3
CN1Cc2c(Cl)cc(Cl)cc2[C@H](c2cccc(-c3cc(OCCOCCOCCOCCNC(=O)Nc4ccc(NC(=O)NCCOCCOCCOCCOc5cc(-c6cccc([C@@H]7CN(C)Cc8c(Cl)cc(Cl)cc87)c6)ncn5)cc4)ncn3)c2)C1 [Example 7-25, 1,1′-Benzene-1,4-diylbis(3-{2-[2-(2-{2-[(6-{3-[(4S)-6,8-dichloro-2-methyl-1,2,3,4-tetrahydroisoquinolin-4-yl]phenyl}pyrimidin-4-yl)oxy]ethoxy}ethoxy)ethoxy]ethyl}urea) hydrochloride]	13.6
COc1cc(-c2cccc([C@@H]3CN(C)Cc4c(Cl)cc(Cl)cc43)c2)ccn1 [Example 1-11, (4S)-6,8-Dichloro-4-[3-(2-methoxypyridin-4-yl)phenyl]-2-methyl-1,2,3,4-tetrahydroisoquinoline trifluoroacetate]	1600
CN1Cc2c(Cl)cc(Cl)cc2[C@H](c2cccc(-c3cn(CCOCCOCCOCCNC(=O)NCCOCCOCCNC(=O)NCCOCCOCCOCCn4cc(-c5cccc([C@@H]6CN(C)Cc7c(Cl)cc(Cl)cc76)c5)nn4)nn3)c2)C1 [Example 7-26, 1,1′-[Ethane-1,2-diylbis(oxyethane-2,1-diyl)]bis {3-[2-(2-{2-[2-(4-{3-[(4S)-6,8-dichloro-2-methyl-1,2,3,4-tetrahydroisoquinolin-4-yl]phenyl}-1H-1,2,3-triazol-1-yl)ethoxy]ethoxy}ethoxy)ethyl]urea}hydrochloride]	5.2
CN1Cc2c(Cl)cc(Cl)cc2[C@H](c2cccc(-c3cncc(NCCOCCOCCNC(=O)NCCCCNC(=O)NCCOCCOCCNc4cncc(-c5cccc([C@@H]6CN(C)Cc7c(Cl)cc(Cl)cc76)c5)n4)n3)c2)C1 [Example 7-20, 1,1′-Butane-1,4-diylbis{3-[2-(2-{2-[(6-{3-[(4S)-6,8-dichloro-2-methyl-1,2,3,4-tetrahydroisoquinolin-4-yl]phenyl}pyrazin-2-yl)amino]ethoxy}ethoxy)ethyl]urea}pentahydrochloride]	7.5
CN1Cc2c(Cl)cc(Cl)cc2[C@H](c2cccc(-c3cncnc3)c2)C1 [Example 1-10, (4S)-6,8-Dichloro-2-methyl-4-[3-(pyrimidin-5-yl)phenyl]-1,2,3,4-tetrahydroisoquinoline trifluoroacetate]	169
CN1Cc2c(Cl)cc(Cl)cc2[C@H](c2cccc(-c3cn(CCOCCOCCOCCNC(=O)[C@H](O)[C@@H](O)C(=O)NCCOCCOCCOCCn4cc(-c5cccc([C@@H]6CN(C)Cc7c(Cl)cc(Cl)cc76)c5)nn4)nn3)c2)C1 [Example 8-5, (2R,3R)-N,N′-Bis[2-(2-{2-[2-(4-{3-[(4S)-6,8-dichloro-2-methyl-1,2,3,4-tetrahydroisoquinolin-4-yl]phenyl}-1H-1,2,3-triazol-1-yl)ethoxy]ethoxy}ethoxy)ethyl]-2,3-dihydroxybutanediamide hydrochloride]	2.8
CN1Cc2c(Cl)cc(Cl)cc2[C@H](c2cccc(-c3cn(CCOCCOCCOCCOCCNC(=O)NCCCCNC(=O)NCCOCCOCCOCCOCCn4cc(-c5cccc([C@@H]6CN(C)Cc7c(Cl)cc(Cl)cc76)c5)nn4)nn3)c2)C1 [Example 7-1, 1,1′-Butane-1,4-diylbis {3-[14-(4-{3-[(4S)-6,8-dichloro-2-methyl-1,2,3,4-tetrahydroisoquinolin-4-yl]phenyl}-1H-1,2,3-triazol-1-yl)-3,6,9,12-tetraoxatetradec-1-yl]urea}hydrochloride]	2.2
CN1Cc2c(Cl)cc(Cl)cc2[C@H](c2cccc(-c3cn(CCOCCOCCOCCNC(=O)NCCOCCNC(=O)NCCOCCOCCOCCn4cc(-c5cccc([C@@H]6CN(C)Cc7c(Cl)cc(Cl)cc76)c5)nn4)nn3)c2)C1 [Example 7-37, 1,1′-(Oxydiethane-2,1-diyl)bis{3-[2-(2-{2-[2-(4-{3-[(4S)-6,8-dichloro-2-methyl-1,2,3,4-tetrahydroisoquinolin-4-yl]phenyl}-1H-1,2,3-triazol-1-yl)ethoxy]ethoxy}ethoxy)ethyl]urea}hydrochloride]	6.6
CN1Cc2c(Cl)cc(Cl)cc2[C@H](c2cccc(-c3cn(CCOCCOCCNC(=O)CCC(=O)NCCOCCOCCn4cc(-c5cccc([C@@H]6CN(C)Cc7c(Cl)cc(Cl)cc76)c5)nn4)nn3)c2)C1 [Example 6-3, N,N′-Bis(2-{2-[2-(4-{3-[(4S)-6,8-dichloro-2-methyl-1,2,3,4-tetrahydroisoquinolin-4-yl]phenyl}-1H-1,2,3-triazol-1-yl)ethoxy]ethoxy}ethyl)butanediamide hydrochloride]	301
CN1Cc2c(Cl)cc(Cl)cc2[C@H](c2cccc(-c3cn(CCOCCOCCOCCNC(=O)NCCNC(=O)NCCOCCOCCOCCn4cc(-c5cccc([C@@H]6CN(C)Cc7c(Cl)cc(Cl)cc76)c5)nn4)nn3)c2)C1 [Example 7-34, 1,1′-Ethane-1,2-diylbis {3-[2-(2-{2-[2-(4-{3-[(4S)-6,8-dichloro-2-methyl-1,2,3,4-tetrahydroisoquinolin-4-yl]phenyl}-1H-1,2,3-triazol-1-yl)ethoxy]ethoxy}ethoxy)ethyl]urea}hydrochloride]	3.3
CN1Cc2c(Cl)cc(Cl)cc2[C@H](c2cccc(-c3ncccn3)c2)C1 [Example 1-16, (4S)-6,8-Dichloro-2-methyl-4-[3-(pyrimidin-2-yl)phenyl]-1,2,3,4-tetrahydroisoquinoline trifluoroacetate]	184
COc1cc(-c2cccc([C@@H]3CN(C)Cc4c(Cl)cc(Cl)cc43)c2)ncn1 [Example 1-13, (4S)-6,8-Dichloro-4-[3-(6-methoxypyrimidin-4-yl)phenyl]-2-methyl-1,2,3,4-tetrahydroisoquinoline trifluoroacetate]	271
CN1Cc2c(Cl)cc(Cl)cc2[C@H](c2cccc(-c3nnn(CCOCCOCCOCCNC(=O)[C@@H](O)[C@H](O)[C@H](O)[C@@H](O)C(=O)NCCOCCOCCOCCn4nnc(-c5cccc([C@@H]6CN(C)Cc7c(Cl)cc(Cl)cc76)c5)n4)n3)c2)C1 [Example 8-25, (2R,3S,4R,5S)-N,N′-Bis[2-(2-{2-[2-(5-{3-[(4S)-6,8-dichloro-2-methyl-1,2,3,4-tetrahydroisoquinolin-4-yl]phenyl}-2H-tetrazol-2-yl)ethoxy]ethoxy}ethoxy)ethyl]-2,3,4,5-tetrahydroxyhexanediamide hydrochloride]	0.2
